Measurements from patent US20180244699A1, “1-HYDROXY-3H-2,1-BENZOXABOROLE DERIVATIVES AND THEIR USE AS MICROBIOCIDES” (Syngenta Participations AG, priority 2015, published 2018).

Tests used:
Type in all cases: cell-based
[1] = test system: Glomerella lagenarium (Colletotrichum lagenarium); test: Glomerella lagenarium (Colletotrichum lagenarium) / liquid culture (anthracnose); settings: Colletotrichum orbiculare, growth inhibition photometrically 3-4 days after application, compared to untreated control
Method: 3. Glomerella lagenarium (Colletotrichum lagenarium)/Liquid Culture (Anthracnose) Conidia of the fungus from cryogenic storage are directly mixed into nutrient broth (PDB potato dextrose broth). After placing a (DMSO) solution of test compound into a microtiter plate (96-well format), the nutrient broth containing the fungal spores is added. The test plates are incubated at 24° C. and the inhibition of growth is measured photometrically 3-4 days after application.

[2] = test system: Gaeumannomyces graminis; test: Gaeumannomyces graminis / liquid culture (take-all of cereals); settings: growth inhibition photometrically 4-5 days after application, compared to untreated control
Method: (§1) 6. Gaeumannomyces Graminis/Liquid Culture (Take-all of Cereals) Mycelial fragments of the fungus from cryogenic storage were directly mixed into nutrient broth (PDB potato dextrose broth). After placing a (DMSO) solution of test compound into a microtiter plate (96-well format), the nutrient broth containing the fungal spores is added. The test plates are incubated at 24° C. and the inhibition of growth is determined photometrically 4-5 days after application.

[3] = test system: Monographella nivalis (Microdochium nivale); test: Monographella nivalis (Microdochium nivale) / liquid culture (foot rot cereals); settings: growth inhibition photometrically 4-5 days after application, compared to untreated control
Method: as §1, with “8. Monographella nivalis (Microdochium nivale)/Liquid” for “6. Gaeumannomyces Graminis/Liquid”, “(Foot Rot” for “(Take-all of”, “Conidia” for “Mycelial fragments”, “are” for “were”

[4] = test system: Pythium ultimum; test: Pythium ultimum / liquid culture (seedling damping off); settings: Globisporangium ultimum, growth inhibition photometrically 2-3 days after application, compared to untreated control
Method: 15. Pythium ultimum/Liquid Culture (Seedling Damping Off) Mycelia fragments and oospores of a newly grown liquid culture of the fungus are directly mixed into nutrient broth (PDB potato dextrose broth). After placing a (DMSO) solution of test compound into a microtiter plate (96-well format), the nutrient broth containing the fungal mycelia/spore mixture is added. The test plates are incubated at 24° C. and the inhibition of growth is determined photometrically 2-3 days after application.

[5] = test system: Mycosphaerella graminicola (Septoria tritici); test: Mycosphaerella graminicola (Septoria tritici) / liquid culture (Septoria blotch); settings: Zymoseptoria tritici, growth inhibition photometrically 4-5 days after application, compared to untreated control
Method: as §1, with “18. Mycosphaerella graminicola (Septoria tritici)/Liquid” for “6. Gaeumannomyces Graminis/Liquid”, “(Septoria Blotch) Conidia” for “(Take-all of Cereals) Mycelial fragments”, “are” for “were”

Measured: inhibition of growth at 20 ppm

COc1c(C(=O)OCC(F)(F)F)ccc2c1B(O)OC2 [Compound 10, 2,2,2-trifluoroethyl 1-hydroxy-7-methoxy-3H-2,1-benzoxaborole-6-carboxylate]
≥ 80%: all assays above

COc1c(C(=O)OCCOc2ccccc2C)ccc2c1B(O)OC2 [Compound 82, 2-(2-methylphenoxy)ethyl 1-hydroxy-7-methoxy-3H-2,1-benzoxaborole-6-carboxylate]
≥ 80%: all assays above

CCCC1OCC(C)(COC(=O)c2ccc3c(c2OC)B(O)OC3)CO1 (stereo not drawn) [Compound 98, (5-methyl-2-propyl-1,3-dioxan-5-yl)methyl 1-hydroxy-7-methoxy-3H-2,1-benzoxaborole-6-carboxylate]
≥ 80%: [2] | [3] | [4]

COc1c(C(=O)OC2CC=CC2)ccc2c1B(O)OC2 [Compound 104, cyclopent-3-en-1-yl 1-hydroxy-7-methoxy-3H-2,1-benzoxaborole-6-carboxylate]
≥ 80%: all assays above

COc1c(C(=O)OCc2cc(C)cc(C)c2)ccc2c1B(O)OC2 [Compound 116, (3,5-dimethylphenyl)methyl 1-hydroxy-7-methoxy-3H-2,1-benzoxaborole-6-carboxylate]
≥ 80%: [2] | [3] | [4]

COc1c(C(=O)OCC2CC2C)ccc2c1B(O)OC2 (stereo not drawn) [Compound 118, (2-methylcyclopropyl)methyl 1-hydroxy-7-methoxy-3H-2,1-benzoxaborole-6-carboxylate]
≥ 80%: all assays above

C#CC(CC)OC(=O)c1ccc2c(c1OC)B(O)OC2 (stereo not drawn) [Compound 121, 1-ethylprop-2-ynyl 1-hydroxy-7-methoxy-3H-2,1-benzoxaborole-6-carboxylate]
not listed: [5]
≥ 80%: all other assays above

CCOC(=O)[C@H](C)OC(=O)c1ccc2c(c1OC)B(O)OC2 [Compound 125, [(1S)-2-ethoxy-1-methyl-2-oxo-ethyl] 1-hydroxy-7-methoxy-3H-2,1-benzoxaborole-6-carboxylate]
≥ 80%: [2] | [3] | [4]

COc1ccc(COC(=O)c2ccc3c(c2OC)B(O)OC3)cc1 [Compound 127, (4-methoxyphenyl)methyl 1-hydroxy-7-methoxy-3H-2,1-benzoxaborole-6-carboxylate]
not listed: [5]
≥ 80%: all other assays above

COc1ccccc1COC(=O)c1ccc2c(c1OC)B(O)OC2 [Compound 128, (2-methoxyphenyl)methyl 1-hydroxy-7-methoxy-3H-2,1-benzoxaborole-6-carboxylate]
≥ 80%: [2] | [3] | [4]

COc1c(C(=O)OCCC(C)C)ccc2c1B(O)OC2 [Compound 129, isopentyl 1-hydroxy-7-methoxy-3H-2,1-benzoxaborole-6-carboxylate]
≥ 80%: all assays above
